Measured values taken from patent publication US20080004282A1, “Compositions and methods for modulating gated ion channels” (PainCeptor Pharma Corporation, priority 2006, published 2008).
Like-named read-outs stand apart in the source and are kept apart here.

Molecular target: T1, ASIC1a (Homo sapiens, UniProt P78348)
T1 sequence (P78348 1-528): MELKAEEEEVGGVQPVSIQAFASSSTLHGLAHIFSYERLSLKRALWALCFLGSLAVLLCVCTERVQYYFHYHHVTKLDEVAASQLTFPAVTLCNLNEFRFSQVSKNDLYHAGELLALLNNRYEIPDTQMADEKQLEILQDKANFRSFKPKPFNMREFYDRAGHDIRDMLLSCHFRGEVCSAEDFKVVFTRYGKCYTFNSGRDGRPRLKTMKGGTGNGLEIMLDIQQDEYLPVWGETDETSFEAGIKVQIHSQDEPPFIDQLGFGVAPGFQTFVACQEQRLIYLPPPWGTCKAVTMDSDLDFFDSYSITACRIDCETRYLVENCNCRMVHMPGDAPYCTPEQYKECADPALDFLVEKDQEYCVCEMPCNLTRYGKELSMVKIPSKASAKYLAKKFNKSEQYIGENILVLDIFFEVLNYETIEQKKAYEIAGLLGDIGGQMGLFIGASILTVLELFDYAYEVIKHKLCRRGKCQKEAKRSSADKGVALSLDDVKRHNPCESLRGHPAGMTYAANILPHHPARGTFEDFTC
Assay: Whole cell patch clamp in HEK293 cells transfected with hASIC1a
Format: cell-based
Parameters: expressed in transfected cells; host or cells: Xenopus laevis oocytes, nuclear microinjection of an expression vector such as pCDNA3
Description: Screening and Bioanalysis of ASIC Antagonists in Heterologous Expression Systems
This example describes another in vitro assessment of the activity of the compounds of the present invention.
Another example of an in vitro assessment method consists of using mammalian heterologous expression systems, which are known to the skilled in the art, and include a variety of mammalian cell lines such as COS, HEK, e.g., HEK293 and/or CHO, cells. Cell lines are transfected with gated ion channel(s) and used to perform electrophysiology as follows:
All experiments are performed at room temperature (20-25° C.) in voltage clamp using conventional whole cell patch clamp methods (Neher, E., et al. (1978) Pfluegers Arch 375:219-228). […]
Coverslips with the cells are transferred to a 15 μl experimental chamber mounted on the stage of an inverted microscope (IMT-2, Olympus) supplied with Nomarski optics. […] The cells are held at a holding voltage of −60 mV and at the start of each experiment the current is continuously measured for 45 s to ensure a stable baseline. […] Current amplitudes are measured at the peak of the responses, and effect of the compounds is calculated as the amplitude at compound equilibrium divided by the amplitude of the current evoked by the pulse just before the compound is included. […]

SMILES	IC50 (HEK293 cells, whole cell patch clamp, six point dose-response, read-out: IC50, inhibition of acid-induced hASIC1a activity)	IC50
CCN1CCc2c(-c3ccccc3)cc(C#N)c(N)c2C1 [Compound 12, 8-Amino-2-ethyl-5-phenyl-1,2,3,4-tetrahydro-isoquinoline-7-carbonitrile]	4 µM	
CCN1CCc2c(-c3cc(Cl)ccc3OC)cc(C#N)c(N)c2C1 [Compound 44]		5.1 µM
